Drawing on ChEMBL document CHEMBL1201862, “PubChem BioAssay data set” (2004), this text covers IC50, EC50 and AC50 for ten compounds.

The target in experiment [1] is G-protein coupled receptor 35 (Homo sapiens, UniProt Q9HC97). In words: GPR35 antagonists blocking zaprinast-driven arrestin recruitment, primary screen, imaging, U2OS, beta-arrestin-GFP, zaprinast agonist (AID 2058).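 Further: antagonist potency meaning inhibition of agonist-induced arrestin redistribution.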 It counts as functional. A general note: Arrestin recruitment assays detect the binding of arrestin to an activated receptor.
G-protein coupled receptor 35, sequence (Q9HC97 whole entry): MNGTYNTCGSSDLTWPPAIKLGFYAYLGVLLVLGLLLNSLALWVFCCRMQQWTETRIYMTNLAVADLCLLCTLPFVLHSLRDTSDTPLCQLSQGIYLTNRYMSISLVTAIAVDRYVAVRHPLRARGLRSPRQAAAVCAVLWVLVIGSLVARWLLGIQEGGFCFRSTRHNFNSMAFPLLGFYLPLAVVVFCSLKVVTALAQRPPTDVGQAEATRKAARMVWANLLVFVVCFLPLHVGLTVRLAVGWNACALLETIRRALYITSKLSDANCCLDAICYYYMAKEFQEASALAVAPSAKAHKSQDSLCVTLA
In experiment [2] the test system is BJ. In words: cytotoxicity toward BJ-TERT fibroblasts, dose response, cell-based, RAS-independent, luminescence (AID 1933). It counts as functional. The settings on record: Homo sapiens.
The test system of experiment [3] is BJ. In words: cells. It counts as functional, cell-based. The note with it: Homo sapiens.
Experiment [4] has as its system BJ. In words: cytotoxicity toward BJ-TERT-LT-ST fibroblasts, dose response, cell-based, RAS-independent, luminescence (AID 1935).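 Further: BJ fibroblasts immortalized with TERT plus LT and ST oncogenes.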 The class given is functional. The settings on record: Homo sapiens.
The nature of experiment [5]: cytotoxicity toward DRD oncogenic fibroblasts, dose response, cell-based, non-viral oncogenic, luminescence (AID 1934). It counts as functional. The note with it: Homo sapiens.
Experiment [6] deals with T1, Endoribonuclease toxin MazF (Escherichia coli K-12, UniProt P0AE70).
T1 sequence (P0AE70 whole entry): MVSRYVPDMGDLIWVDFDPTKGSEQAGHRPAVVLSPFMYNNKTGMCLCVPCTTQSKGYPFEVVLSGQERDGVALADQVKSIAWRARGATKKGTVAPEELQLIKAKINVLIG
In words: MazF toxin RNase activators, dose response, biochemical, fluorescence, single-stranded RNA substrate, uHTS hits (AID 588481). It counts as functional.

For experiment [7], the target named is T1, Endoribonuclease toxin MazF. In words: fluorescent RNA oligo signal without MazF, dose response, counter-screen for MazEF activator project, biochemical, fluorescence, single-stranded RNase substrate (AID 588502). The class given is functional.
In experiment [8] the target is T2, Epstein-Barr nuclear antigen 1 (Epstein-Barr virus (strain B95-8) (HHV-4) (Human herpesvirus 4), UniProt P03211).
T2 sequence (P03211 whole entry): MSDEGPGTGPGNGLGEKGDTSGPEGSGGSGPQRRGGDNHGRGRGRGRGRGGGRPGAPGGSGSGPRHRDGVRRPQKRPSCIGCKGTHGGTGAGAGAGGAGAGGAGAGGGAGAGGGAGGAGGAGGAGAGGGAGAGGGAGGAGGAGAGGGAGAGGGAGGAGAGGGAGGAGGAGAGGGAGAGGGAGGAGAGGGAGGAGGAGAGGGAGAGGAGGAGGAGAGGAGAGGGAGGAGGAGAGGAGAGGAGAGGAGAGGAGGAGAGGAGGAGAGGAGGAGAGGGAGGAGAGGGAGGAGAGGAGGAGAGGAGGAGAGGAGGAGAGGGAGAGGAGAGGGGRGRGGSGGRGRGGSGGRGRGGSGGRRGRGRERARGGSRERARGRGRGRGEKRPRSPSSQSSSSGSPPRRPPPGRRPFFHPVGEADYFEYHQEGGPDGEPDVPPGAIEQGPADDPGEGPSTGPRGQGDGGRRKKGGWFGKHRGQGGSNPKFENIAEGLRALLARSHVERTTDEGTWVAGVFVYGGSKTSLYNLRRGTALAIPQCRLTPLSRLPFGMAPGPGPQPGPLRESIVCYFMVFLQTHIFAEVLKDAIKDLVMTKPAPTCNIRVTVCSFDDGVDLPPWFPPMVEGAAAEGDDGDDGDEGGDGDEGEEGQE
In words: EBNA-1 inhibitors, dose response, biochemical, fluorescence polarization, 1536-well (AID 2381).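 Further: fluorescence polarization of a Cy5 DNA probe bound by EBNA-1 protein.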 On the set-up: species or system human gammaherpesvirus 4.

Experiment [9] has as its target T3, Lytic switch protein BZLF1 (Epstein-Barr virus (strain B95-8) (HHV-4) (Human herpesvirus 4), UniProt P03206).
T3 sequence (P03206 whole entry): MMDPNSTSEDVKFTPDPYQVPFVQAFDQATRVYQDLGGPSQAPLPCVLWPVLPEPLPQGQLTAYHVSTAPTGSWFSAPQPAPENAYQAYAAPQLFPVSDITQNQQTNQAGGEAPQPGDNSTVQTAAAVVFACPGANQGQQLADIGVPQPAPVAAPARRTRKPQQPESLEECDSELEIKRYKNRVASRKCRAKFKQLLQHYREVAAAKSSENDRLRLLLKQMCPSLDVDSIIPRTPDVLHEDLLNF
In words: EBV ZTA inhibitors, dose response, counter-screen for EBNA-1 inhibitor project, biochemical, fluorescence polarization, Epstein-Barr virus, 1536-well (AID 2377).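 Further: fluorescence polarization of Cy5-labelled ZRE DNA probe bound by purified Zta.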 More on the design: species or system human gammaherpesvirus 4. For orientation: A counterscreen serves to expose hits that act by an unwanted route or on another target.

Experiment [10] addresses T4, Acyl-homoserine lactone acylase PvdQ (Pseudomonas aeruginosa (strain LESB58), UniProt Q9I194).
T4 sequence (Q9I194 whole entry): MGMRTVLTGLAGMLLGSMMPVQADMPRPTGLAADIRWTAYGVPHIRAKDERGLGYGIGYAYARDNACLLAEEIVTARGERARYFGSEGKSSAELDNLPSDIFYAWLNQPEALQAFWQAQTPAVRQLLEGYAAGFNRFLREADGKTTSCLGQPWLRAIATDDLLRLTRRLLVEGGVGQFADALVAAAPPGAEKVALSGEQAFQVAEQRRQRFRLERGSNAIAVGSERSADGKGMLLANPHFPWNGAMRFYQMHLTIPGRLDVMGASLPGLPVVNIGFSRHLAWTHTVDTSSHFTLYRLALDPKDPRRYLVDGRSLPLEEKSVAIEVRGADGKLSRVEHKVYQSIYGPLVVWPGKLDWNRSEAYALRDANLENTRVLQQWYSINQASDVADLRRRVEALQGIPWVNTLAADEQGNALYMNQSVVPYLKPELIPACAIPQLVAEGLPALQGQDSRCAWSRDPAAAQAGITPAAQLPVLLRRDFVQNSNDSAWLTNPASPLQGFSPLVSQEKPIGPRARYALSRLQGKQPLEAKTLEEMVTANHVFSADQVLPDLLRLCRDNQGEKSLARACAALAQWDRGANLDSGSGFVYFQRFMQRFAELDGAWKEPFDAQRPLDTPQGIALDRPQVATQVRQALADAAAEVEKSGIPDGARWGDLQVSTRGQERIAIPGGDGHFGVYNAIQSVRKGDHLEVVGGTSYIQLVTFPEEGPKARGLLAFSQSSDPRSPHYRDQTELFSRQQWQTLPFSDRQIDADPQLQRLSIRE
In words: P. aeruginosa PvdQ acylase inhibitors, dose response, biochemical, fluorescence, plate reader and imaging, cherry-picks (AID 493231).

Experiment [11] has as its target Luciferin 4-monooxygenase (Photinus pyralis, UniProt P08659). In words: Counter Screen for Luciferase-based Assay Positives. [Related pubchem assays: 620, 618, 411 ].
A further experiment relates to HT-1080. In words: cytotoxicity in HT1080 fibrosarcoma cells, cell-based, fluorescence readout (AID 620). The class given is functional. The settings on record: Homo sapiens.
Experiment [12] is described as follows: HepG2 cell cytotoxicity, dose response, cytotoxicity control, plate reader, cherry-pick, antagonist series (AID 743416). The class given is functional, cell-based.
The nature of experiment [13]: LGR2 antagonists, dose response, cell-based, HEK293, CRE-luciferase reporter, cherry pick, set 2 (AID 743343).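 Further: transfected cells were stimulated with diluted bursicon conditioned medium after compound addition.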 It counts as functional.
Experiment [14] can be described thus: MC4R antagonists, dose response, counter-screen for LGR2 antagonist project, cell-based, plate reader, cherry pick (AID 743444).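 Further: transfected HEK 293 cells stimulated with alpha-MSH peptide; potency of inhibitors of the alpha-MSH evoked signal.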 The class given is functional.
For experiment [15], the target named is T5, Short transient receptor potential channel 4 (Mus musculus, UniProt Q9QUQ5).
T5 sequence (Q9QUQ5 whole entry): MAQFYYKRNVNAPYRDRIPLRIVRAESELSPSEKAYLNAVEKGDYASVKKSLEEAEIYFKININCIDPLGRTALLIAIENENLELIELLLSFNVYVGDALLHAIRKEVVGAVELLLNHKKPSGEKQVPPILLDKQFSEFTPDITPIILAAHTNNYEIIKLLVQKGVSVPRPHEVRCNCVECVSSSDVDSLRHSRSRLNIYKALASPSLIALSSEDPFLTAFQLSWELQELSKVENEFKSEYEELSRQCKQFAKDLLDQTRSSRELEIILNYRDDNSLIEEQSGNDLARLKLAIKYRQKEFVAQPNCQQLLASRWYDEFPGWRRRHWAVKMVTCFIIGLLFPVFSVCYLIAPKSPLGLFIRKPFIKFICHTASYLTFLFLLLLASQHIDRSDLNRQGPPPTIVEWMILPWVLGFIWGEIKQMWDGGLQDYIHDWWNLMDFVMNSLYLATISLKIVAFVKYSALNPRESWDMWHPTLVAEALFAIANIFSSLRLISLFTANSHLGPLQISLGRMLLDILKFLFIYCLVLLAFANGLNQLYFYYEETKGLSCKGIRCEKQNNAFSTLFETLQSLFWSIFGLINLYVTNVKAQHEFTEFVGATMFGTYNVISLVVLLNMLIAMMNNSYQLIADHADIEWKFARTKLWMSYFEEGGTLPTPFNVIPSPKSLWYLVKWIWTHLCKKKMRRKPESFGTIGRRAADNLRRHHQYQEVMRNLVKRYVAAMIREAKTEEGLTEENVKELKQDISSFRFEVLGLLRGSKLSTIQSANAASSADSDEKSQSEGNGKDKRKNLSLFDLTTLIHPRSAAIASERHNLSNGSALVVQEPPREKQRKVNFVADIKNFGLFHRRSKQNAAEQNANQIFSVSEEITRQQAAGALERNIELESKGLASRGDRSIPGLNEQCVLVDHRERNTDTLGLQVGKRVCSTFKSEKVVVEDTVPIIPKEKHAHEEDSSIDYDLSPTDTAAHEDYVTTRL
In words: mouse TRPC4 channel inhibitors, dose response, cell-based, HEK293 TRPC4/mu-opioid, Fluo-4 calcium (AID 434942).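 Further: potency of inhibitors blocking the TRPC4 calcium response.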 The class given is functional.

A short description of experiment [16]: enhancers of respiration in Yfh1-depleted yeast, dose response, Friedreich's ataxia, plus single-dose screen (AID 1465).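 Further: yeast depleted of Yfh1p frataxin homolog grown on glycerol needing respiration; WST-1 tetrazolium dye reduction as measure of cellular dehydrogenase metabolic activity.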 It counts as functional.
Experiment [17] concerns the target 26S proteasome non-ATPase regulatory subunit 14 (Homo sapiens, UniProt O00487). In words: inhibition of proteasome subunit RPN11 – biochemical, fluorescence polarization, uHTS hits, confirmation (AID 602368). The class given is functional.
In experiment [18] the target is 72 kDa type IV collagenase (Homo sapiens, UniProt P08253). In words: Dose Response validation of uHTS RPN11 inhibitor hits using a MMP-2 Fluorescence assay. The class given is functional.
72 kDa type IV collagenase, sequence (P08253 whole entry): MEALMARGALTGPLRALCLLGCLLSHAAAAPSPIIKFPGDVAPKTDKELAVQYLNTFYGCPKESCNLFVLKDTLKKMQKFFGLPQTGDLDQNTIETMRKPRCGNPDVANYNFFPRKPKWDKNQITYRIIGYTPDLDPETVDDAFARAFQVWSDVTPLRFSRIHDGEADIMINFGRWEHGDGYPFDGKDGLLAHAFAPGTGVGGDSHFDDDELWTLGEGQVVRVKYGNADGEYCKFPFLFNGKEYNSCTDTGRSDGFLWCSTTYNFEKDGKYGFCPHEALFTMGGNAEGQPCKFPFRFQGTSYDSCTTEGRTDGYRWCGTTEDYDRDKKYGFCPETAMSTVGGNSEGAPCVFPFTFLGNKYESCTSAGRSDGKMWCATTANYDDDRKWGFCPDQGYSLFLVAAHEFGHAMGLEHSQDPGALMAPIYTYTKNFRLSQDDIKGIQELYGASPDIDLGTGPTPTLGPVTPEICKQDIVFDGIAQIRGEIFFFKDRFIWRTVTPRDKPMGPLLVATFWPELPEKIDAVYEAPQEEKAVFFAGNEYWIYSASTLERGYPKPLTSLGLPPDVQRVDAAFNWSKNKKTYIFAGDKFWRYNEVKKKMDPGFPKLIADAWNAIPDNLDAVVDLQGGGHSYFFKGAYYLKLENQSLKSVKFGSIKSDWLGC
The target of another experiment is Prothrombin (Bos taurus, UniProt P00735). In words: thrombin inhibition, dose response, biochemical, fluorescence polarization, uHTS hits (AID 602369). The class given is functional. (Fluorescence polarisation rises when a labelled molecule tumbles more slowly, as on binding a larger partner.)
The target in experiment [19] is G-protein coupled receptor 55 (Homo sapiens, UniProt Q9Y2T6). In words: GPR55 agonists via beta-arrestin recruitment, primary screen, imaging, U2OS cells, beta-arrestin-GFP redistribution (AID 1961). The class given is functional.
G-protein coupled receptor 55, sequence (Q9Y2T6 whole entry): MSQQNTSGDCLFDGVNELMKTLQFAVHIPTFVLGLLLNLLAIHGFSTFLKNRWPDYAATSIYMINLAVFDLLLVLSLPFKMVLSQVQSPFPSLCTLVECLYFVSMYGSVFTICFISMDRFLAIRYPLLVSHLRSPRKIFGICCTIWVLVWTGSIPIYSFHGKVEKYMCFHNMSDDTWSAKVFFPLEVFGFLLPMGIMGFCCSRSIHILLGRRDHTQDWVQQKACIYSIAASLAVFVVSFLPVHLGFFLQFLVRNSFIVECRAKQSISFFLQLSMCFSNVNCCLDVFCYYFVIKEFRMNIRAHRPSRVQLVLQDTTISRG

Molecules are shown by their SMILES. Active and inactive are the calls of the source.

Usually IC50 stands for the concentration needed to halve the response being measured. As a reminder, the EC50 is the concentration needed to bring the measured effect to its halfway point. The AC50 is the concentration giving half of the maximal activity seen.

Luciferin 4-monooxygenase, sequence (P08659 whole entry): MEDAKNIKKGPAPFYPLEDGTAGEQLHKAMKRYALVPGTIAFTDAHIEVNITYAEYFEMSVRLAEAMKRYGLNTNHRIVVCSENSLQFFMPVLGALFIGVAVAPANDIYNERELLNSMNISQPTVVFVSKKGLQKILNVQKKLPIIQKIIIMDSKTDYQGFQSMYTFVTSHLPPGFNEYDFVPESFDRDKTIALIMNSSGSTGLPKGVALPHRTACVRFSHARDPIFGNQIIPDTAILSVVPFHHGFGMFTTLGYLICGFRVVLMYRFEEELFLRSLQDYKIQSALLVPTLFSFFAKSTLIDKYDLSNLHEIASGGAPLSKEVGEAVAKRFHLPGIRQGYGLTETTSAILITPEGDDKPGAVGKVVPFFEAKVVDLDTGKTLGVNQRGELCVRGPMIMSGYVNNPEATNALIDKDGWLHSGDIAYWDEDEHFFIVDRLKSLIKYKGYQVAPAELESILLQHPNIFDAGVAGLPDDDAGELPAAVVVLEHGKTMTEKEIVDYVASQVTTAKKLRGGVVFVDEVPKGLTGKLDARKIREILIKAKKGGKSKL
26S proteasome non-ATPase regulatory subunit 14, sequence (O00487 whole entry): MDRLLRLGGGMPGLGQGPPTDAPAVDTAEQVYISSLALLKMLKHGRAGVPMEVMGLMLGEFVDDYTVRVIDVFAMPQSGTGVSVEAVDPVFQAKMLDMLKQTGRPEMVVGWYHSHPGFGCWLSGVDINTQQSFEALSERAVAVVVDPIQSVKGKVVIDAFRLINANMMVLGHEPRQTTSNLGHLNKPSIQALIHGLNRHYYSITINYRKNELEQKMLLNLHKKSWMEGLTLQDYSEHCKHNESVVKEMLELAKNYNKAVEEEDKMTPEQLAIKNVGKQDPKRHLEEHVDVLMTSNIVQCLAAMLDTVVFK

With `COCCN1C(=O)/C(=C/c2ccc(N3CCCC3)cc2)SC1=S`, in experiment [1], the IC50 was < 0.5 µM (active). In addition, the EC50 in the experiment on BJ [2] is 20.9 µM (inconclusive); in the experiment on BJ [3], > 150 µM (not active); in the experiment with BJ [4] it was > 150 µM (not active); in experiment [5] it was 49.7 µM (active); in experiment [6], > 99 µM (inactive); in experiment [7] it was > 99 µM (inactive).

With `Cc1ccc(NC(=O)CSc2ccc(-c3ccc4c(c3)OCO4)nn2)cc1F`, the results for the 50% inhibitory concentration (IC50) in experiment [8] and in experiment [9] were 4.44 µM (active) and > 111 µM (not active), respectively.

Take `COC(=O)c1cc(-c2cccc(OC)c2)on1`: the AC50 in [10] was > 100 µM (inactive).

On to `Oc1c2c(nc3cc(-c4ccc(F)cc4)nn13)CCCC2`, for which the EC50 in [11] was 79.7 µM (active); in the experiment on HT-1080, 33.8 µM (active). Moreover, the AC50 in [12] is > 52 µM (inactive); in [13], 7.51 µM (active); in [14], 6.58 µM (active).

Consider `CCOC(=O)c1ccc(N2Cc3ccccc3C2=N)cc1`, for which, in experiment [10], the concentration at half-maximal activity (AC50) is 3.83 µM (active).

For the compound `O=C1C=C(c2cccc(Cl)c2)C[C@@H](c2ccc(F)cc2)C1`, the AC50 in experiment [10] is 9.81 µM (active).

For the compound `CCn1c(=O)n(CCOC)c(=O)c2c3c(sc21)CCCC3`, the EC50 in experiment [15] is 1.19 µM (active).

As for `O=[N+]([O-])c1ccc(N2CCCCC2)s1`, the 50% effective concentration (EC50) in experiment [16] is > 100 µM (active). Further, the half-maximal inhibitory concentration (IC50) in [17] is 36.1 µM (active); in experiment [18] it was > 100 µM (inactive); at Prothrombin, 68 µM (active).

For the compound `CN1C(=O)C(=Cc2ccc(N3CCOCC3)o2)C(=O)N(C)C1=O`, the half-maximal effective concentration (EC50) in experiment [16] is > 100 µM (active).

Regarding `CCCN(CCC)Cc1c(C(=O)N/N=C/C(C)=C\c2ccccc2)nnn1-c1nonc1N`, in experiment [19], the 50% effective concentration (EC50) was 0.525 µM (active).
